From US20190211020A1 (Agency for Science, Technology and Research, priority 2012, published 2019)
Where a name gives a salt, the structure may show the parent alone. Read-outs that look alike come from different tables or passages of the source.

Tested on: eIF4E Ser209 phosphorylation in Hela cells
Test: MNK cell-based assay (AlphaScreen SureFire, eIF4E Ser209 phosphorylation)
Details: Homo sapiens, read-out: IC50 Hela
Excerpt: It has been reported that Ser209 of eIF4E is solely phosphorylated by the MNK enzymes. The ability of compounds to inhibit this process in Hela cells was investigated using the AlphaScreen SureFire® assay platform from Perkin Elmer (Waltham, Mass.). eIF4E phosphorylated on Ser209 is recognized by two antibodies, the first which is fused to a streptavidin coated donor bead binds to an epitope away from Ser209, the second which is fused to a protein A conjugated acceptor bead binds to phosphorylated Ser209. The phosphorylation of eIF4E on Ser209 brings the two antibodies into close proximity and when excited by a laser a singlet oxygen is released by the donor bead which excites the acceptor bead resulting in the emission of light. This enables the monitoring of eIF4E Ser209 phosphorylation and its inhibition in a cellular context.
Hela cells were seeded into microtitre plates (30,000 cells per well) in 100 μl of culture medium and incubated at 37° C. for 24 hours. The media was then removed by aspiration and the cells resuspended in 50 μl of serum free medium containing the test compound and incubated at 37° C. for 2 hours. The culture medium was again removed by aspiration and the cells resuspended in lysis buffer (provided in Perkin Elmer SureFire® Assay Kit). After agitation at 350 rpm for 20 minutes at 22° C., 4 μl was transferred to a 384 well OptiPlate™ (Perkin Elmer, Waltham, Mass.). To each well was added 5 μl of acceptor mix; the plate was sealed and agitated gently at 22° C. for 2 hours. Then, in subdued light, 2 μl of donor mix was added to each well, the plate was sealed, wrapped in aluminum foil and agitated gently at 22° C. for 2 hours. Emission was measured using the EnVision® plate reader (Perkin Elmer, Waltham, Mass.).
Inhibition constants (IC50) were determined by plotting AlphaScreen signal versus log compound concentration and fitting with a non-linear regression algorithm using GraphPad Prism (GraphPad Software Inc.).

[1] = eIF4E Ser209 phosphorylation, Hela cells, 2 hours

SMILES | IC50 [1] [nM] | IC50 (HeLa, 2 h) [nM]
CC1(C)CCN(C(=O)c2ccc(-c3cn4c(-c5ccc(C(N)=O)cc5)cnc4cn3)cc2)CC1 [Example 3, 4-(6-(4-(4,4-dimethylpiperidine-1-carbonyl)phenyl)imidazo[1,2-a]pyrazin-3-yl)benzamide] | < 1000 | 
NC(=O)c1ccc(-c2cnc3cnc(-c4ccc(C(=O)N5CCC(N)CC5)cc4)cn23)cc1 [Example 4, 4-(6-(4-(4-aminopiperidine-1-carbonyl)phenyl)imidazo[1,2-a]pyrazin-3-yl) benzamide hydrochloride] | < 1000 | 
CC(C)(C)N1CCN(C(=O)c2ccc(-c3cn4c(-c5ccc(C(N)=O)cc5)cnc4cn3)cc2)CC1 [Example 5, 4-(6-(4-(4-tert-butylpiperazine-1-carbonyl)phenyl)imidazo [1,2-a]pyrazin-3-yl)benzamide] | < 1000 | 
N#Cc1ccc(-c2cnc3cnc(-c4ccc(C(=O)N5CCOCC5)cc4)cn23)cc1 [Example 7, 4-(6-(4-(morpholine-4-carbonyl)phenyl)imidazo[1,2-a]pyrazin-3-yl)benzonitrile] | < 1000 | 
CNC1CCN(C(=O)c2ccc(-c3cn4c(-c5ccc(C#N)cc5)cnc4cn3)cc2)CC1 [Example 9, 4-(6-(4-(4-(methylamino)piperidine-1-carbonyl)phenyl)imidazo[1,2-a]pyrazin-3-yl)benzonitrile] | < 1000 | 
N#Cc1ccc(-c2cnc3cnc(-c4ccc(C(=O)N5CCN(C6CC6)CC5)cc4)cn23)cc1 [Example 14, 4-(6-(4-(4-cyclopropylpiperazine-1-carbonyl)phenyl)imidazo[1,2-a]pyrazin-3-yl)benzonitrile] | < 1000 | 
N#Cc1ccc(-c2cnc3cnc(-c4ccc(C(=O)N5CCC(O)CC5)cc4)cn23)cc1 [Example 15, 4-(6-(4-(4-hydroxypiperidine-1-carbonyl)phenyl)imidazo [1,2-a]pyrazin-3-yl)benzonitrile] | < 1000 | 
CN1CCCN(C(=O)c2ccc(-c3cn4c(-c5ccc(C#N)cc5)cnc4cn3)cc2)CC1 [Example 17, 4-(6-(4-(4-methyl-1,4-diazepane-1-carbonyl)phenyl)imidazo [1,2-a]pyrazin-3-yl)benzonitrile] | < 1000 | 
CN(C)C1CCN(C(=O)c2ccc(-c3cn4c(-c5ccc(C#N)cc5)cnc4cn3)cc2)CC1 [Example 21, 4-(6-(4-(4-(dimethylamino)piperidine-1-carbonyl)phenyl)imidazo [1,2-a]pyrazin-3-yl)benzonitrile] | < 1000 | 
CC1(N)CCN(C(=O)c2ccc(-c3cn4c(-c5ccc(C#N)cc5)cnc4cn3)cc2)CC1 [Example 23, 4-(6-(4-(4-amino-4-methylpiperidine-1-carbonyl)phenyl)imidazo[1,2-a]pyrazin-3-yl)benzonitrile hydrochloride salt] | < 1000 | 
N#Cc1ccc(-c2cnc3cnc(-c4ccc(C(=O)N5CCC6(CC5)COC6)cc4)cn23)cc1 [Example 24, 4-(6-(4-(2-oxa-7-azaspiro[3.5]nonane-7-carbonyl)phenyl)imidazo[1,2-a]pyrazin-3-yl)benzonitrile] | < 1000 | 
CC(C)(C)N1CCN(C(=O)c2ccc(-c3cn4c(-c5ccc(C#N)cc5)cnc4cn3)cc2)CC1 [Example 26, 4-(6-(4-(4-tert-butylpiperazine-1-carbonyl)phenyl)imidazo[1,2-a]pyrazin-3-yl)benzonitrile] | < 1000 | 
Cc1cc(-c2cn3c(-c4ccc(C#N)cc4)cnc3cn2)ccc1C(=O)N1CCC(C)(N)CC1 [Example 28, 4-(6-(4-(4-amino-4-methylpiperidine-1-carbonyl)-3-methylphenyl)imidazo [1,2-a]pyrazin-3-yl)benzonitrile] | < 1000 | 
N#Cc1ccc(-c2cnc3cnc(-c4ccc(C(=O)N5CCC(N)CC5)c(F)c4)cn23)cc1 [Example 29, 4-(6-(4-(4-aminopiperidine-1-carbonyl)-3-fluorophenyl)imidazo[1,2-a]pyrazin-3-yl)benzonitrile] | < 1000 | 
CC1(N)CCN(C(=O)c2ccc(-c3cn4c(-c5ccc(C#N)cc5)cnc4cn3)cc2F)CC1 [Example 30, 4-(6-(4-(4-amino-4-methylpiperidine-1-carbonyl)-3-fluorophenyl)imidazo[1,2-a]pyrazin-3-yl)benzonitrile] | < 1000 | 
N#Cc1ccc(-c2cnc3cnc(-c4ccc(C(=O)N5CCC(N)CC5)c(Cl)c4)cn23)cc1 [Example 31, 4-(6-(4-(4-aminopiperidine-1-carbonyl)-3-chlorophenyl)imidazo[1,2-a]pyrazin-3-yl)benzonitrile] | < 1000 | 
CC1(N)CCN(C(=O)c2ccc(-c3cn4c(-c5ccc(C#N)cc5)cnc4cn3)cc2Cl)CC1 [Example 32, 4-(6-(4-(4-amino-4-methylpiperidine-1-carbonyl)-3-chlorophenyl)imidazo[1,2-a]pyrazin-3-yl)benzonitrile] | < 1000 | 

SMILES | IC50 [1] [nM] | IC50 (HeLa, 2 h) [nM]
CN1CCN(C(=O)c2ccc(-c3cn4c(-c5ccc(C#N)cc5)cnc4cn3)c(O)c2)CC1 [Example 38, 4-(6-(2-hydroxy-4-(4-methylpiperazine-1-carbonyl)phenyl)imidazo [1,2-a]pyrazin-3-yl)benzonitrile] | < 1000 | 
COc1cc(-c2cn3c(-c4ccc(C#N)cc4)cnc3cn2)ccc1C(=O)N1CCN(C)CC1 [Example 39, 4-(6-(3-methoxy-4-(4-methylpiperazine-1-carbonyl)phenyl)imidazo[1,2-a]pyrazin-3-yl)benzonitrile] | < 1000 | 
CN1CCN(C(=O)c2ccc(-c3cn4c(-c5ccc(Cl)cc5)cnc4cn3)cc2)CC1 [Example 41, (4-(3-(4-chlorophenyl)imidazo [1,2-a]pyrazin-6-yl)phenyl)(4-methylpiperazin-1-yl)methanone] | < 1000 | 
NC(=O)c1ccc(-c2cn3c(-c4ccc(Cl)cc4)cnc3cn2)cc1 [Example 42, 4-(3-(4-chlorophenyl)imidazo[1,2-a]pyrazin-6-yl)benzamide] | < 1000 | 
O=C1CCN(C(=O)c2ccc(-c3cn4c(-c5ccc(Cl)cc5)cnc4cn3)cc2)CC1 [Example 43, 1-(4-(3-(4-chlorophenyl)imidazo[1,2-a]pyrazin-6-yl)benzoyl)piperidin-4-one] |  | < 1000
CCN1CCN(C(=O)c2ccc(-c3cn4c(-c5ccc(Cl)cc5)cnc4cn3)cc2)CC1 [Example 45, (4-(3-(4-chlorophenyl)imidazo [1,2-a]pyrazin-6-yl)phenyl)(4-ethylpiperazin-1-yl)methanone] | < 1000 | 
O=C(c1ccc(-c2cn3c(-c4ccc(Cl)cc4)cnc3cn2)cc1)N1CCNCC1 [Example 46, (4-(3-(4-chlorophenyl)imidazo[1,2-a]pyrazin-6-yl)phenyl)(piperazin-1-yl)methanone 2,2,2-trifluoroacetate salt] | < 1000 | 
O=C(c1ccc(-c2cn3c(-c4ccc(Cl)cc4)cnc3cn2)cc1)N1CCC(NC(=O)C(F)(F)F)CC1 [Example 48, N-(1-(4-(3-(4-chlorophenyl)imidazo [1,2-a]pyrazin-6-yl)benzoyl)piperidin-4-yl)-2,2,2-trifluoroacetamide] | < 1000 | 
N#Cc1ccc(-c2cnc3ccc(-c4ccc(C(=O)N5CCC(O)CC5)cc4)nn23)cc1 [Example 55, 4-(6-(4-(4-hydroxypiperidine-1-carbonyl)phenyl)imidazo [1,2-b]pyridazin-3-yl)benzonitrile] | < 1000 | 
N#Cc1ccc(-c2cnc3ccc(-c4ccc(C(=O)N5CCC(N)CC5)cc4)nn23)cc1 [Example 56, 4-(6-(4-(4-aminopiperidine-1-carbonyl)phenyl)imidazo[1,2-b]pyridazin-3-yl)benzonitrile] | < 1000 | 
CC(=O)NC1CCN(C(=O)c2ccc(-c3ccc4ncc(-c5ccc(C#N)cc5)n4n3)cc2)CC1 [Example 57, N-(1-(4-(3-(4-cyanophenyl)imidazo[1,2-b]pyridazin-6-yl)benzoyl)piperidin-4-yl)acetamide] | < 1000 | 
CC1(N)CCN(C(=O)c2ccc(-c3ccc4ncc(-c5ccc(C#N)cc5)n4n3)cc2)CC1 [Example 58, 4-(6-(4-(4-amino-4-methylpiperidine-1-carbonyl)phenyl)imidazo[1,2-b]pyridazin-3-yl)benzonitrile] | < 1000 | 
CC(C)N1CCN(C(=O)c2ccc(-c3ccc4ncc(-c5ccc(C#N)cc5)n4n3)cc2)CC1 [Example 59, 4-(6-(4-(4-isopropylpiperazine-1-carbonyl)phenyl)imidazo [1,2-b]pyridazin-3-yl)benzonitrile] | < 1000 | 
CNC1CCN(C(=O)c2ccc(-c3ccc4ncc(-c5ccc(C#N)cc5)n4n3)cc2)CC1 [Example 60, 4-(6-(4-(4-(methylamino)piperidine-1-carbonyl)phenyl)imidazo[1,2-b]pyridazin-3-yl)benzonitrile] | < 1000 | 
CN(C)C1CCN(C(=O)c2ccc(-c3ccc4ncc(-c5ccc(C#N)cc5)n4n3)cc2)CC1 [Example 63] | < 1000 | 
N#Cc1ccc(-c2cnc3ccc(-c4ccc(C(=O)N5CCCOCC5)cc4)nn23)cc1 [Example 64, 4-(6-(4-(1,4-oxazepane-4-carbonyl)phenyl)imidazo[1,2-b]pyridazin-3-yl)benzonitrile] | < 1000 | 
